For test [1], the system named is HeLa cells. Description: Oxygen consumption rates (OCR), Seahorse XF24 flux analyser. In kind it is cell-based, human. To be noted: for effect on OCR / mitochondrial respiration: rotenone 1 µM plus antimycin A 1 µM, siOPA1- and siCtrl-transfected cells; for oxygen consumption due to mitochondrial respiration: shown by rotenone plus antimycin, both siOPA1- and siCtrl-transfected cells. The text has this: (§1) The inventors assessed oxygen consumption rates (OCR), a direct measure of oxidative phosphorylation activity, and extracellular acidification rates (ECAR), representative of glycolysis, since it accounts for approximately 80% of acidification (Wu et al., 2007, Xie et al., 2009), using the Seahorse XF24 flux analyser (Seahorse Bioscience Inc, North Billerica, MA, USA). Basal respiration was 38% lower in siOPA1-transfected HeLa cells than siCtrl-treated cells (Figure 1). Furthermore, ATP-linked respiration measured in the presence of oligomycin, which inhibits ATP synthase, was reduced by 40%. The maximal OCR measured in the presence of the protonophore FCCP, which uncouples oxidation and phosphorylation, was reduced by 58%. […] Indeed, citrate synthase activity and quantity and HSP60, VDAC, and TOM20 levels were unchanged (Figures 18 and 19).
Oxygen consumption rates (OCR) and extracellular acidification rates (ECAR) were measured using the XF24 Extracellular Flux Analyser (Seahorse Bioscience, North Billerica, MA). HeLa cells (15.103) transfected with siCtrl or siOPA1 were plated on XF24 microplates three days before OCR measurements. Dual-analyte sensor cartridges were soaked in XF Calibrant Solution (Seahorse Biosciences) in 24-well cell-culture microplates overnight at 37°C to hydrate. Approximately one hour prior to experimentation, injection ports on the sensor cartridge were filled with oligomycin (1 µM), Carbonyl cyanide 4-(trifluoromethoxy) phenylhydrazone (FCCP) (1 µM), and rotenone (1 µM) plus antimycin A (1 µM). Plates were then loaded into the XF24 instrument for calibration. For measuring oxygen consumption, the DMEM growth media of HeLa cells was replaced by DMEM supplemented with NaCl (143 mM), Phenol Red (3 mg/ml), glucose (10 mM), glutamine (2 mM), and pyruvate (2 mM) at pH 7.4, and the plates maintained at 37°C 1 h prior to experimentation. Plates were then loaded into the Seahorse XF24 analyser following the manufacturer's instructions.

The subject of test [2] is HeLa cells. Description: Extracellular acidification rates (ECAR), Seahorse XF24 flux analyser. In kind it is cell-based, human. Conditions: 1 µM, both siCtrl- and siOPA1-transfected cells.
Description: as §1
Oxygen consumption rates (OCR) and extracellular acidification rates (ECAR) were measured using the XF24 Extracellular Flux Analyser (Seahorse Bioscience, North Billerica, MA). HeLa cells (15.103) transfected with siCtrl or siOPA1 were plated on XF24 microplates three days before OCR measurements. Dual-analyte sensor cartridges were soaked in XF Calibrant Solution (Seahorse Biosciences) in 24-well cell-culture microplates overnight at 37°C to hydrate. […]

Regarding antimycin A, the “effect on OCR / mitochondrial respiration” value was “inhibited mitochondrial respiration” in test [1] and “considerably decreased” in test [1] (listed as antimycin). Besides, the “oxygen consumption due to mitochondrial respiration” value in test [1] is “more than 95%”.
For `CC[C@H]1/C=C/C=C/C[C@@H](C)[C@H](O)[C@@](C)(O)C(=O)[C@@H](C)[C@H](O)[C@@H](C)C(=O)[C@@H](C)[C@H](O)[C@@H](C)/C=C/C(=O)O[C@@H]2[C@H](C)[C@H](CC1)O[C@]1(CC[C@H](C)[C@H](C[C@@H](C)O)O1)[C@H]2C` [oligomycin], the “effect of oligomycin injection on ECAR” value in test [2] is “increased”.
For `C=C(C)[C@H]1Cc2c(ccc3c2O[C@@H]2COc4cc(OC)c(OC)cc4[C@@H]2C3=O)O1` [rotenone], in test [1], the “effect on OCR / mitochondrial respiration” value is reported as “inhibited mitochondrial respiration” and the “oxygen consumption due to mitochondrial respiration” value is on record as “more than 95%”. The “effect on OCR / mitochondrial respiration” value in test [1] (listed as Rotenone) is “considerably decreased”.

For the origin of these results see patent publication EP4439067A1, “METHOD FOR IDENTIFYING REACTIVE OXYGEN SPECIES” (Centre National de la Recherche Scientifique, priority 2023, dated 2024).
